Assay results: US10627395B2, “Methods and systems for biomonitoring” (Newomics Inc., priority 2015, dated 2020)
Where two headings read alike, the source gives them in different places.

Key:
[1] = NIST SRM 1950 human plasma; reference value provided by NIST; cited from earlier work
[2] = On-chip SPE-nanoLC-MS quantification of PFCs in human blood samples
Experimental: Standard stock PFCs solutions are prepared by diluting PFC standards (a list of which is shown in Table 2) in methanol in polypropylene vials. All glassware is rinsed with methanol before use. For plasma samples spiked with PFCs, frozen pooled human plasma is obtained from Innovative Research Inc. (Novi, Mich.). A 5 microliter aliquot of human plasma is thawed and mixed with 2.5 microliters of internal standards (^13C8-PFOA and ^13C8-PFOS, 50 ng/ml), 2.5 microliters of PFC standards with desired concentration, and 20 microliters of cold acetonitrile with 0.1% formic acid. After vortexing for 2 min, the mixture is sonicated for 10 min and then centrifuged at 14,000 g for 15 min. 24 microliters of the supernatant is taken out and allowed to evaporate at room temperature until the volume is reduced to around 16 microliters. All samples are stored in polypropylene vials at minus 20 degree Celsius. Standard Reference Materials (SRMs) 1950 Metabolites in Human Plasma ordered from National Institute of Standards and Technology (NIST) are stored at minus 80 degree Celsius before use. NIST SRM 1950 is thawed at room temperature and prepared by the same procedure as pooled plasma samples for validation of the chip performance.
The SPE run starts with conditioning a C18-packed SPE column by flowing 20 microliters of LC solvent B (95%/5% methanol/H2O with 2 mM ammonium acetate) at 10 microliters/min through the inlet port P1. The column is then equilibrated with 20 microliters of LC solvent A (5%/95% methanol/H2O with 2 mM ammonium acetate) at 10 microliters/min. Four microliters of the sample (containing lmicroliters of plasma) are injected into a 20-microliter sample loop and loaded onto the SPE column, followed by washing with 20 microliters of LC solvent A at 10 microliters/min. Next, the analytes are eluted from the SPE column with LC solvent B at 1 microliter/min and transferred to the trap column by mixing it with another stream of LC solvent A through the port P3 (20 microliters/min). The passive microfluidic mixer including herringbone structures enables efficient mixing of two streams and thus prevents heterogeneous streaming of organic solvent from the SPE eluent, allowing the analytes to be enriched on the trap column efficiently. Finally the HPLC gradient elution at flow rate of 600 nl/min is run to separate the analytes that are to be analyzed by nanoESI-MS. The LC solvent A consists of 5%/95% methanol/H2O with 2 mM ammonium acetate, and solvent B consists of 95%/5% methanol/H2O with 2 mM ammonium acetate. […] After that, it is increased to 95% B in 5 minutes and held at 95% B for 5 minutes. Finally it returns to the initial condition (10% B) in 2 minutes and is held for 5 minutes. The total time period for each SPE-LC-MS run is about one hour. Negative-ion-mode MS detection are performed on a hybrid quadrupole/orthogonal Q-TOF API US mass spectrometer (Waters Corp.). The capillary voltage and cone voltage are set to −2.4 kV and 25 V, respectively, and the collision energy is fixed at 10 eV. The nanoelectrospray process on emitters is visualized and monitored using a Waters nanoflow camera kit equipped with a MLH-10 Zoom lenses (Computar).
The raw LC-MS data are processed using MassLynx 4.0 software package provided with the Q-TOF API US instrument (Waters Corp.). Extracted ion chromatograms (EIC) for all target analytes are generated using their corresponding precursor/product ions with a mass window of 0.10 Da. The peak area ratio of each analyte relative to its corresponding isotope-labelled internal standard is used for quantification. For perfluorocarboxylate compounds, their product ions are used for quantitation, because their product ions are more abundant (3-5 times) than precursor ions under current MS settings. The abundance ratio between the product ion and precursor ion for each perfluorocarboxylate compound is found to be consistent over the wide concentration range (1-100 ng/ml). […]

[3] = U.S. population of 20 years and older, cited from earlier work
[4] = target: human serum albumin (HSA) (Homo sapiens, UniProt P02768); conditions: cited from earlier work
[5] = NIST SRM 1950 human plasma, SPE-LC-MS chip
[6] = pooled human plasma, SPE-LC-MS chip

Chain of human serum albumin (HSA) (P02768 25-609): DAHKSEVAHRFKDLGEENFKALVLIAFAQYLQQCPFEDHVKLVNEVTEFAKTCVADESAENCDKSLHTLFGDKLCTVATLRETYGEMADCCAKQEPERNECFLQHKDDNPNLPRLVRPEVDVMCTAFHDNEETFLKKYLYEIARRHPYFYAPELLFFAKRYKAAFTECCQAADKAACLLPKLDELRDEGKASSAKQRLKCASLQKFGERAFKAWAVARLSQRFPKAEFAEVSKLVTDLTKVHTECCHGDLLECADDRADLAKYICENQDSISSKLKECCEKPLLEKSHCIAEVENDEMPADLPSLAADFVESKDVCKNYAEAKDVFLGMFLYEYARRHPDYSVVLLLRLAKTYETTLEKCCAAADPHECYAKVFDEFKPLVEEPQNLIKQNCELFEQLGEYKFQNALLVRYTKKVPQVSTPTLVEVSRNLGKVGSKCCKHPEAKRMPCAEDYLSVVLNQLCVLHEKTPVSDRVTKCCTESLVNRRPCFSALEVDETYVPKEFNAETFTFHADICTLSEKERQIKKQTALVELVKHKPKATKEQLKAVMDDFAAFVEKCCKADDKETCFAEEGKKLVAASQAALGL

## O=C(O)C(F)(F)C(F)(F)C(F)(F)C(F)(F)C(F)(F)C(F)(F)C(F)(F)C(F)(F)C(F)(F)F [PFDeA, Perfluorodecanoic acid]
[1]
  Concentration of PFCs, NIST SRM 1950, Reference Value: 0.322 ± 0.007 ng/mL
[2]; [5]
  Concentration of PFCs, NIST SRM 1950, Measured Value: 0.364 ± 0.033 ng/mL
[2]; [6]
  Concentration of PFCs, Pooled plasma, Measured Value: 0.279 ng/mL
[3]; survey year 2009-2010
  Individual serum, National Exposure Report by CDC, geometric mean (95% confidence interval): 0.289 (0.265-0.314) ng/ml
[3]; survey year 2011-2012
  Individual serum, National Exposure Report by CDC, geometric mean (95% confidence interval): 0.209(0.189-0.230) ng/ml

## O=C(O)C(F)(F)C(F)(F)C(F)(F)C(F)(F)C(F)(F)C(F)(F)C(F)(F)F [PFOA, Perfluorooctanoic acid]
[4]
  number of PFOA binding sites to human serum albumin (HSA): over 6
[4]; human blood
  PFOA bound to HSA in human blood: more than 90%

## O=S(=O)(O)C(F)(F)C(F)(F)C(F)(F)C(F)(F)C(F)(F)C(F)(F)F [PFHxS, Perfluorohexane sulfonic acid]
[1]
  Concentration of PFCs, NIST SRM 1950, Reference Value: 3.25 ± 0.080 ng/mL
[2]; [5]
  Concentration of PFCs, NIST SRM 1950, Measured Value: 3.53 ± 0.38 ng/mL
[2]; [6]
  Concentration of PFCs, Pooled plasma, Measured Value: 1.18 ng/mL
[3]; survey year 2009-2010
  Individual serum, National Exposure Report by CDC, geometric mean (95% confidence interval): 1.61 (1.45-1.79) ng/ml
[3]; survey year 2011-2012
  Individual serum, National Exposure Report by CDC, geometric mean (95% confidence interval): 1.28 (1.14-1.43) ng/ml

## O=S(=O)(O)C(F)(F)C(F)(F)C(F)(F)C(F)(F)C(F)(F)C(F)(F)C(F)(F)C(F)(F)F [PFOS, Perfluorooctane sulfonic acid]
[1]
  Concentration of PFCs, NIST SRM 1950, Reference Value: 10.6 ± 0.13 ng/mL
[2]; [5]
  Concentration of PFCs, NIST SRM 1950, Measured Value: 11.1 ± 0.36 ng/mL
[2]; [6]
  Concentration of PFCs, Pooled plasma, Measured Value: 4.76 ng/mL
[3]; survey year 2009-2010
  Individual serum, National Exposure Report by CDC, geometric mean (95% confidence interval): 9.72 (8.45-11.2) ng/ml
[3]; survey year 2011-2012
  Individual serum, National Exposure Report by CDC, geometric mean (95% confidence interval): 6.71 (6.24-7.20) ng/ml

## NS(=O)(=O)C(F)(F)C(F)(F)C(F)(F)C(F)(F)C(F)(F)C(F)(F)C(F)(F)C(F)(F)F [PFOSA, Perfluorooctane sulfonamide]
[2]; human
  Concentration of PFCs, NIST SRM 1950, Measured Value: 0.172 ± 0.078 ng/mL
  Concentration of PFCs, Pooled plasma, Measured Value: 0.094 ng/mL
[3]; survey year 2009-2010
  Individual serum, National Exposure Report by CDC, geometric mean (95% confidence interval): <0.1; <0.1 ng/ml
[3]; survey year 2011-2012
  Individual serum, National Exposure Report by CDC, geometric mean (95% confidence interval): <0.1; <0.1 ng/ml
